According to patent US11591334B2, “Substituted pyrrolizines for the treatment of hepatitis B” (SHANGHAI LONGWOOD BIOPHARMACEUTICALS CO., LTD., priority 2017, dated 2023):
Like-named read-outs stand apart in the source and are kept apart here.

Legend:
C150 protein = target: T1, C150 protein (Hepatitis B virus genotype D subtype adw, UniProt P03147, C107A/C48A/C61A/R150C); experiment: In vitro anti-HBV nucleocapsid assembly activity test (Experiment 1, protein experiment); type: biochemical
T1 construct: purchased WuXi Apptec Co., Ltd
Protocol: Experiment 1: In Vitro Anti-HBV Nucleocapsid Assembly Activity Test
Main Reagents and Raw Materials:
C150 protein was expressed and purified by WuXi Apptec Co., Ltd.
BoDIPY® FL was purchased from Thermo Fisher Scientific.
Protein Fluorescent Label:
150 μL of 2% w/v skimmed milk was added into each well of 96-well plate, and incubated at room temperature for 2 hours. The skimmed milk was aspirated. The plate was washed with deionized water and dried, and stored at room temperature. C150 protein (3 mg per tube) was desalted with 5 ml Hitrap desalting column. The desalted C150 protein of each tube was added with 50 mM BoDIPY® FL Fluorescent Dye (20 μl), and incubated under 4° C. overnight in the dark after well mixed. Sephadex G-25 gel was used for filtration to remove fluorescent dyes that were not bounded onto C150. The C150 fluorescent labeling efficiency was calculated according to the following equation: [BoDIPY®FL]=A504/78,000 M^−1; [C150Bo]=(A280−[BoDIPY®FL]×1300 M^−1)/60,900 M^−1; Fluorescent Labeling Efficiency=[BoDIPY®FL]/[C150Bo];
The mother liquor of compound was diluted with DMSO to 6 mM, then diluted to 600 μM with 50 mM HEPES, and then further 3-fold diluted with 10 DMSO/50 mM HEPES to 8 concentrations.
C150Bo was diluted to 2 μM with 50 mM HEPES. 37.5 μL of C150Bo and 2.5 μL of compound at each concentration were added into a 96 well plate and well mixed, then incubated at room temperature for 15 minutes. 10 μl of 750 mM NaCl/50 mM HEPES were added into the each reaction well, and the final concentration of NaCl was 150 mM.
Into the control wells in the 0% protein group 10 μL of 50 mM HEPES was added, and the final concentration of NaCl was 0 mM.
Into the control wells in the 100% protein group 10 μL of 5 M/50 mM HEPES was added, and the final concentration of NaCl was 1 M.
The final concentration of DMSO was 0.5%, the maximum final concentration of the compound was 30 μM, and final concentration of C150Bo was 1.5 μM. The mixture was incubated at room temperature for 1 hour. Fluorescence signal was measured (excitation light was 485 nm; emission light was 535 nm).
Data Analysis % protein assembly=[1−(Sample fluorescence value−1 M NaCl fluorescence value)/(0 M NaCl fluorescence value−1 M NaCl fluorescence value)]×100.
IC50 value was calculated by prism software, and the equation was as follows: Y=Bottom+(Top−Bottom)/(1+10^((LogIC50−X)HillSlope));

HBV = experiment: Determination of anti-HBV activity in HepG2.2.15 cell (Experiment 2, HBV DNA in supernatant by qPCR); type: cell-based; details: Hepatitis B virus
Protocol: Experiment 2: Determination of Anti-HBV Activity in HepG2.2.15 Cell
(§1) Compound dilution. All the compounds for in vitro anti-HBV activity assay and cytotoxicity assay were 3-fold diluted into 8 concentrations. The final concentration of the tested compound was 30 μM, the final starting concentration of reference compound GLS4 was 1 μM, and the final concentration of DMSO was 0.5%.
HepG2.2.15 cell (4×10^4 cell/well) was inoculated into 96 well plate, and cultured overnight in 37° C., 5% CO2. On the second day, fresh culture medium containing different concentrations of the compound was added into the culture wells. On the fifth day, the old culture solution in the culture well was aspirated and fresh culture medium containing different concentrations of the compound was added.
On the eighth day, the supernatant in the culture well was collected for extraction of HBV DNA, and the content of DNA in the supernatant of HepG2.2.15 HBV was detected by qPCR. After the supernatant was collected, the medium and Cell-titer Glo reagent were added into the culture well, and the chemiluminescence value of each well was measured by microplate reader.
The activity calculation formula was as follows: Y=Bottom+(Top−Bottom)/(1+10^((LogIC50−X)*Hillslope));

[1] = Determination of cytotoxicity (Experiment 3, resazurin assay); type: cell-based; details: human
Protocol: as §1, with “0.5%. Experiment 3: Determination of Cytotoxicity The cytotoxicity of the test compound was tested using HepG2 cells. The cells were incubated for 4 days in the presence of the test compound. Cell activity was assessed using the resazurin assay.” for “0.5%.”

[2] = fluorescently labeled C150 (C150Bo) 1.5 μM, 150 mM NaCl, 1 hour at room temperature, read-out: Experiment 1 Protein experiment IC50
[3] = HepG2.2.15 cells, HBV DNA in supernatant on the eighth day, qPCR, read-out: Experiment 2 Cell experiment EC50
[4] = HepG2 cells, incubated for 4 days, resazurin assay, read-out: Experiment 3 Cytotoxicity CC50
[5] = HepG2.2.15, read-out: Experiment 2 Cell experiment EC50 (nM)

T1 sequence (P03147 1-150 C48A/C61A/C107A/R150C): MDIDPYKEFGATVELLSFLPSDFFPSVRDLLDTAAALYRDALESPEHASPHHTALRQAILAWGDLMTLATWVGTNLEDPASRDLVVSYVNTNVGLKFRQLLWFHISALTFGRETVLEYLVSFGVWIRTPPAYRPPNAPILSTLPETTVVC

Row | Compound | IC50 (C150 protein; [2]) [nM] | EC50 (HBV; [3]) [nM] | CC50 at 4 days [1, 4] [nM] | IC50 (C150 protein) [nM] | EC50 (HBV; [5]) [nM] | CC50 at 4 days [1] [nM]
1 | C[C@@H](NS(=O)(=O)c1c(Cl)c(C(=O)Nc2ccc(F)c(F)c2)n2c1C=CC2)C(F)(F)F [Compound 10a] | 1000 to 100000 | 0.1 to 100 | > 30000 | – | – | –
2 | Cc1c(S(=O)(=O)NC2(C)COC2)c2n(c1C(=O)Nc1ccnc(C(F)F)c1)CC=C2 [Compound 10aa] | 1000 to 100000 | 100 to 1000 | > 30000 | – | – | –
3 | C[C@@H](NS(=O)(=O)c1c(Cl)c(C(=O)Nc2cc(F)c(F)c(F)c2)n2c1C=CC2)C(F)(F)F [Compound 10b] | – | 0.1 to 100 | > 30000 | 1000 to 100000 | – | –
4 | C[C@@H](NS(=O)(=O)c1c(Cl)c(C(=O)Nc2ccc(F)c(C#N)c2)n2c1C=CC2)C(F)(F)F [Compound 10c] | – | 0.1 to 100 | > 30000 | 1000 to 100000 | – | –
5 | CC(NS(=O)(=O)c1c(Cl)c(C(=O)Nc2ccnc(C(F)F)c2)n2c1C=CC2)C(F)(F)F (stereo not drawn) [Compound 10d] | 1000 to 100000 | 100 to 1000 | > 30000 | – | – | –
6 | CC(NS(=O)(=O)c1c(Cl)c(C(=O)Nc2ccnc(Cl)c2)n2c1C=CC2)C(F)(F)F (stereo not drawn) [Compound 10e] | 1000 to 100000 | 100 to 1000 | > 30000 | – | – | –
7 | CC(NS(=O)(=O)c1c(Cl)c(C(=O)Nc2cc(F)nc(C#N)c2)n2c1C=CC2)C(F)(F)F (stereo not drawn) [Compound 10f] | – | 0.1 to 100 | > 30000 | 1000 to 100000 | – | –
8 | Cc1c(S(=O)(=O)NC(C)C(F)(F)F)c2n(c1C(=O)Nc1ccc(F)c(F)c1)CC=C2 (stereo not drawn) [Compound 10g] | 1000 to 100000 | 0.1 to 100 | > 30000 | – | – | –
9 | Cc1c(S(=O)(=O)NC2C3CCC2CC(O)(CO)C3)c2n(c1C(=O)Nc1ccc(F)c(F)c1)CC=C2 (stereo not drawn) [Compound 10mm] | 1000 to 100000 | 100 to 1000 | > 30000 | – | – | –
10 | O=C(Nc1ccc(F)c(F)c1)c1c(Cl)c(S(=O)(=O)NC2C3CCC2CC(O)(c2cc(-c4ccccc4)on2)C3)c2n1CC=C2 (stereo not drawn) [Compound 10oo] | 1000 to 100000 | 100 to 1000 | > 30000 | – | – | –
11 | Cc1c(S(=O)(=O)N2C3CCC2CC(O)(CO)C3)c2n(c1C(=O)Nc1cc(F)nc(C#N)c1)CC=C2 (stereo not drawn) [Compound 10vv] | – | – | – | 1000 to 100000 | 0.1 to 100 | > 30000
12 | O=C(Nc1ccc(F)c(F)c1)c1c(Cl)c(S(=O)(=O)N2C3CCC2CC(O)(c2cc(-c4ccccc4)on2)C3)c2n1CC=C2 (stereo not drawn) [Compound 10ww] | – | – | – | 1000 to 100000 | 0.1 to 100 | > 30000
13 | CC(NS(=O)(=O)c1c(Cl)c(C(=O)Nc2ccc(F)c(F)c2)n2c1CCC2)C(F)(F)F (stereo not drawn) [Compound 20a] | 1000 to 100000 | 0.1 to 100 | > 30000 | – | – | –
14 | CC(NS(=O)(=O)c1c(Cl)c(C(=O)Nc2cc(F)c(F)c(F)c2)n2c1CCC2)C(F)(F)F (stereo not drawn) [Compound 20b] | – | 0.1 to 100 | > 30000 | < 1000 | – | –
15 | CC(CO)NS(=O)(=O)c1c(Cl)c(C(=O)Nc2ccc(F)c(F)c2)n2c1CCC2 (stereo not drawn) [Compound 20cc] | 1000 to 100000 | 100 to 1000 | > 30000 | – | – | –
16 | CC(CO)NS(=O)(=O)c1c(Cl)c(C(=O)Nc2ccc(F)c(C#N)c2)n2c1CCC2 (stereo not drawn) [Compound 20dd] | 1000 to 100000 | 100 to 1000 | > 30000 | – | – | –
17 | CC(CO)NS(=O)(=O)c1c(Cl)c(C(=O)Nc2ccnc(C(F)F)c2)n2c1CCC2 (stereo not drawn) [Compound 20ee] | 1000 to 100000 | 0.1 to 100 | > 30000 | – | – | –
